Legend:
[1] = test system: RAW264.7 macrophages; assay: Macrophage proliferation (CCK-8 viability of LPS-stimulated RAW264.7 cells); format: cell-based
Procedure: (§1) RAW264.7 macrophages were purchased from the National Collection of Authenticated Cell Cultures (Shanghai, China). The cell culture medium was supplemented with 10% fetal bovine serum and 100 U/mL penicillin and 100 μg/mL streptomycin in DMEM culture medium.
The viability of RAW264.7 cells was measured by Cell Counting Kit (CCK-8). Briefly, RAW264.7 cells were plated into 96-well plates at a density of 5×10^4 cells/well and incubated at 37 °C, 5% CO2 for 24 hours. Next the cells were exposed to 1 μg/mL lipopolysaccharides (LPS) for 24 hours to induce an inflammatory response by the RAW264.7 cells. Subsequently, the cells were exposed to different combinations of test ingredients for 24 hours. For the control, the cells were stimulated with LPS for 24 hours, followed by 24 hours with medium only. […] The absorbance was recorded on an automatic microplate reader with an […] of 450 nm. The higher the measured value, the higher the number of viable cells.
The macrophage proliferation is expressed as a percentage compared to the control (LPS only) which was set to 100%. […]
For this evaluation, the concentration at which each test ingredient provided an equivalent effect on macrophage proliferation was determined.
A combination of two compounds was considered as having synergy if both values, as calculated according to formulas 1a and 1b below, were higher than 1. […]

[2] = test system: RAW264.7 macrophages; assay: ROS production (DCFH-DA probe in LPS-stimulated RAW264.7 cells); format: cell-based; conditions: Mus musculus, 10 μg/mL, relative to control (LPS only) set to 100%
Procedure: as §1
The accumulation of ROS was assessed by the radical probe DCFH-DA. At the beginning, RAW264.7 cells were seeded in 6-well plate at 1×10^6 cells/well for 24 hours followed by a 24 hour exposure to LPS to induce an inflammatory response by the RAW264.7 cells. Subsequently, the cells were exposed to different combinations of test ingredients. For the control, the cells were stimulated with LPS for 24 hours, followed by 24 hour with medium only. All experiments were performed in triplicate. […] After incubation at 37 °C for 20 minutes in the dark, the cells were washed and lysed to release intracellular DCF and the fluorescence intensity was detected at 488 nm excitation and 525 nm emission using a microplate spectrofluorometer. The higher the measured value, the higher the level of ROS.
A combination of two compounds was considered as having synergy if both values, as calculated according to formulas 1a and 1b below, were higher than 1. […] If a combination of three compounds were to be evaluated, a similar logic is applied, but the assessed concentration in the combination is divided by 3 and three comparisons are made. […]

## O=C(O)c1cc(C(=O)O)c2c(n1)C(=O)C(=O)c1cc(C(=O)O)[nH]c1-2 [PQQ, Pyrroloquinoline quinone]
[1]; Mus musculus, RAW264.7, 24 h, Example 2, 10 μg/mL, relative to control (LPS only) set to 100%
  activity at 10 µg/mL: 142 ± 14.1%
[1]; Table 4, LPS-stimulated RAW264.7 cells
  Concentration that provided an equivalent effect on macrophage proliferation: 10 µg/mL
[2]
  activity at 10 µg/mL: 62.8 ± 5.3%

From patent US20260345585A1, “DIETARY SUPPLEMENT COMPRISING A PREBIOTIC AND ANTIOXIDANT” (N.V. Nutricia, priority 2023, published 2026)
